In paper PMC5382172 (Frontiers in Molecular Neuroscience, 2017):

Tests used:
GluClαP192M/βWT receptor = target: T1, GluClαP192M/βWT receptor (Caenorhabditis elegans, UniProt G5EBR3+Q17328, P192M); assay: Whole-cell patch clamp in CHO cells, GluClαP192M/βWT receptor; format: cell-based; details: 500 nM IVM, -60 mV
T1 construct: entry codes of the full-length subunits used in this study; expressed in transfected cells; host or cells: CHO cells, transient co-transfection 1:1, pcDNA3.1
Description: (§1) Chinese hamster ovary (CHO) cells were cultured as previously (Bar-Lev et al., [2011]) in Dulbecco’s Modified Eagle Medium (DMEM) containing 10% fetal calf serum, 2 mM glutamax, 100 Units/ml penicillin G and 100 μg/ml streptomycin, and grown in 5% CO2 at 37°C under 90%–95% humidity. The cells were seeded on glass coverslips (13-mm diameter) placed in a 24-multiwell plate. […] For the expression of GluCl receptors, cells were transiently co-transfected with pcDNA3.1 plasmids containing the ORFs of interest using transit-LT1 transfection reagent (Mirus, Madison, WI, USA), according to the manufacturer’s protocol. The cDNAs encoding the C. elegans GluClα (GLC-1) or its mutated versions and the GluClβ (GLC-2) subunits (200–600 ng per well) were used at 1:1 ratio. The pIRES-CD8 plasmid (200 ng per well) was added to enable the visualization of the expressing cells by beads coated with anti-CD8 antibodies (Invitrogen). […]
(§2) Whole-cell patch clamp recordings were performed as described previously (Bar-Lev et al., [2011]) in CHO cells that were prepared as detailed above. […] The currents were measured with an Axopatch 200B patch-clamp amplifier (Molecular Devices, Sunnyvale, CA, USA) and a Digidata 1440A interface (Molecular Devices). […]

GluClαP192E/βWT receptor = target: T2, GluClαP192E/βWT receptor (Caenorhabditis elegans, UniProt G5EBR3+Q17328, P192E); assay: Whole-cell patch clamp in CHO cells, GluClαP192E/βWT receptor; format: cell-based; details: 500 nM IVM, -60 mV
T2 construct: entry codes of the full-length subunits used in this study; expressed in transfected cells; host or cells: CHO cells, transient co-transfection 1:1, pcDNA3.1
T2 sequence (Q17328 23-434): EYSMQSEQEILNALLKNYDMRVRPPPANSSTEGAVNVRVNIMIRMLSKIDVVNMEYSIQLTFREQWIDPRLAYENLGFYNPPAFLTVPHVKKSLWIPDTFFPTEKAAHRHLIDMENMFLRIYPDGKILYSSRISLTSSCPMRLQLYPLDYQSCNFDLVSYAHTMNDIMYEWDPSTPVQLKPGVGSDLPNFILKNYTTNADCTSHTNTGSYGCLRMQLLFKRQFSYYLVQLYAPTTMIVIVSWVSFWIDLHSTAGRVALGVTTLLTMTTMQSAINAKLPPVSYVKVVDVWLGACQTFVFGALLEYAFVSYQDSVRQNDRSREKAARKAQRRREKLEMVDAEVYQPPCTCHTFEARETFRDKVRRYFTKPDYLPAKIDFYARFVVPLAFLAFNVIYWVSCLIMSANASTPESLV
T2 sequence (G5EBR3 21-461 P192E): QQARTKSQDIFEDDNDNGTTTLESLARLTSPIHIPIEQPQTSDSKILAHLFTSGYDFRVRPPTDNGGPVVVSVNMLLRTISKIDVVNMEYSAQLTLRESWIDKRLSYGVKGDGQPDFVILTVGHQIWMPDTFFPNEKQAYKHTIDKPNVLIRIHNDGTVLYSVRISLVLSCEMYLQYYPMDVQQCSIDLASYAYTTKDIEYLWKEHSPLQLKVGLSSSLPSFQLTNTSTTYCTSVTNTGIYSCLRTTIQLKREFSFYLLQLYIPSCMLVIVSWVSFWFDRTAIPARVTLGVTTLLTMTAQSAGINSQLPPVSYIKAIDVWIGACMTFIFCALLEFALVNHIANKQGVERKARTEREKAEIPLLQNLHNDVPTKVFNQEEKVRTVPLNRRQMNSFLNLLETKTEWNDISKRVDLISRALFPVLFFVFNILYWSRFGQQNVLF
Description: as §1, §2

[1] = target: T3, GluClαWT (GLC-1) homomeric receptor (Caenorhabditis elegans, UniProt G5EBR3); parameters: method as in Degani-Katzav et al., [2016]; details: CHO cells, αWT alone; ref Degani-Katzav et al., [2016]; cited from earlier work
T3 construct: entry codes of the full-length subunits used in this study; expressed in transfected cells; host or cells: CHO cells, transient transfection, pcDNA3.1
T3 sequence (G5EBR3 21-461): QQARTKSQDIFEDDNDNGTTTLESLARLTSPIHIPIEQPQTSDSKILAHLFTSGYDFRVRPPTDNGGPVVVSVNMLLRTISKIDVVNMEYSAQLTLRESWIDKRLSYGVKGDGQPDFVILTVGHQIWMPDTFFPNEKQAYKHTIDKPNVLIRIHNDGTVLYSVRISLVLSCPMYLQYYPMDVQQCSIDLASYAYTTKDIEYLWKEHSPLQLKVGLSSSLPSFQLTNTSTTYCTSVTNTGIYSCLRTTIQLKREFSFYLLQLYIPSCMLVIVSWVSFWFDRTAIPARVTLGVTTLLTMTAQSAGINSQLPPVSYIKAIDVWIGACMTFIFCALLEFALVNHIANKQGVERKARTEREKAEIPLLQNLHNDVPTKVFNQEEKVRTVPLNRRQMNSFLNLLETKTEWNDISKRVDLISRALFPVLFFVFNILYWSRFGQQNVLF

GluClαE273R/βWT receptor = target: T4, GluClαE273R/βWT receptor (Caenorhabditis elegans, UniProt G5EBR3+Q17328, E273R); assay: Whole-cell patch clamp in CHO cells, GluClαE273R/βWT receptor; format: cell-based; details: 500 nM IVM, -60 mV
T4 construct: entry codes of the full-length subunits used in this study; expressed in transfected cells; host or cells: CHO cells, transient co-transfection 1:1, pcDNA3.1
T4 sequence (G5EBR3 21-461 E273R): as the sequence (G5EBR3 21-461 P192E) above, with E172P, E253R counted along it
T4 sequence (Q17328 23-434): as the sequence (Q17328 23-434) above
Description: as §1, §2

T1 sequence (Q17328 23-434): as above
T1 sequence (G5EBR3 21-461 P192M): as the sequence (G5EBR3 21-461 P192E) above, with E172M counted along it

**Q.** Which “IVM (500 nM) Amplitude” value (GluClαP192M/βWT receptor) does the source give for `CC[C@H](C)[C@H]1O[C@]2(CC[C@@H]1C)C[C@@H]1C[C@@H](C/C=C(\C)[C@@H](O[C@H]3C[C@H](OC)[C@@H](O[C@H]4C[C@H](OC)[C@@H](O)[C@H](C)O4)[C@H](C)O3)[C@@H](C)/C=C/C=C3\CO[C@@H]4[C@H](O)C(C)=C[C@@H](C(=O)O1)[C@]34O)O2` [IVM, ivermectin] here?
**A.** 1.4 ± 0.2 nA

**Q.** What about the “IVM (500 nM) Amplitude” value (GluClαP192E/βWT receptor) of the same compound?
**A.** 1.7 ± 0.3 nA

**Q.** And the “response to 500 nM IVM” value [1]?
**A.** robust responses

**Q.** What about the “IVM (500 nM) Amplitude” value (GluClαE273R/βWT receptor) of the same compound?
**A.** 1.0 ± 0.2 nA
